Tests used:
[1] = system: Aneurinibacillus sp.; assay: Nitrogen Availability Assay, growth and substrate range tests of thermophilic culture; details: for growth on test compound (substrate range): 3 mM test compound, 2 to 3 weeks incubation; for minimum nitrogen concentration needed for growth: sole nitrogen source
Experimental: The growth curve for this microorganism on pyridine as sole nitrogen source at 55° C. was determined by adding pyridine at the concentration of 3 mM to the Modified A medium in a 300 ml shake flask with a side arm klett tube to take klett/turbidity readings. Inoculums from log phase cultures were used in studying the growth kinetics of the culture. […] All experiments were in triplicate.
The concentration of nitrogen required by Aneurinibacillus sp. for growth was investigated using ammonium chloride and pyridine as sole nitrogen sources in modified medium A, at pH 7 and 55° C.
Substrate range and specificity tests were carried out for this culture. Experiments were performed during 2 to 3 weeks of incubations in sterile tubes with 3 mM concentration of the test compounds and an incubation volume of 5 ml.

[2] = system: Pseudomonas ayucida No PTA-806; assay: Nitrogen Bioavailability Assay, substrate range and specificity tests; type: cell-based; details: for growth on test compound as nitrogen source: substrate range and specificity tests
Source text: The ability of bacteria to utilize organic nitrogen compounds for growth can be measured by the Nitrogen Bioavailability Assay (NBA). This assay is based on the fact that all life requires some nitrogen for growth and, therefore, a situation can be created whereby quantifying bacterial growth provides a measure of the utilization of any organic or inorganic compound as a source of nitrogen.
Thus, the Nitrogen Availability Assay utilizes defined mineral salts medium in growth tests in which organonitrogen model compounds such as quinoline, pyridine, carbazole, and porphyrin serve as sources of carbon and/or nitrogen. Growth tests are performed using six conditions:
1. Test compound as sole source of carbon and nitrogen;
2. […]
3. Test compound as sole source of nitrogen (alternative carbon source, glucose/glycerol/succinate, is available);
4. Test compound present as well as alternative sources of carbon and nitrogen;
5. Only alternative nitrogen (ammonia) and carbon (glucose/glycerol/succinate) sources are available. The test compound is not present.
6. No nitrogen compounds of any kind are present, but alternative carbon (glucose/glycerol/succinate) sources are available.
These six growth conditions constitute a bioassay for the ability of a culture to metabolize organonitrogen compounds. […]
The NBA test may be performed with any organonitrogen test compound which is ordinarily used at a concentration of from 3 mM to 20 mM.
In order to determine the range of organonitrogen compounds that could serve as sole sources of nitrogen for growth for the various pure cultures of the invention various organonitrogen compounds and control compounds are tested according to the Nitrogen Bioavailability Assay procedure. All compounds are highly pure, analytical grade compounds.
The various cultures are inoculated into test tubes or shake flasks containing media components appropriate for the six test conditions.
The cultures are then incubated aerobically for 2 to 4 days, at room temperature or at 30° C.
The growth of the cultures is monitored by measuring the turbidity/optical density of the cultures in the various test conditions, or by determining colony forming units.
Test condition no 6 (nitrogen-free sample) is a negative control.
Test conditions no 4 and 5 are positive controls since the samples are amended with both a carbon and nitrogen source and therefore should produce healthy microbial growth unless the test compound is toxic to the culture being tested. In this event only condition no 5 should result in healthy growth.
Substrate range and specificity tests were also carried out for the microorganism of the invention.

[3] = system: Derivatives of Pseudomonas ayucida No PTA-806; assay: Utilization of organonitrogen compounds by derivative culture; type: cell-based
Source text: Similarly, derivatives of Pseudomonas ayucida No PTA-806 that are resistant to antiobiotics, either by the isolation of chromosomal mutations or by the introduction of suitable plasmids, retain the ability to selectively cleave C—N bonds in quinoline and other organonitrogen compounds.

[4] = system: Yokenella sp.; assay: Utilization of carbazole as nitrogen or carbon source; type: cell-based
Experimental: The Yokenella sp. culture is prepared according to the principles described hereinbefore. […] Experimental results lead to the conclusion that C—N bonds in carbazole are selectively cleaved by the Yokenella sp. culture isolated here although the specific metabolites produced have not yet been determined.

[5] = system: Pseudomonas stutzeri; assay: as above; type: cell-based
Experimental: This culture is prepared by the methods described hereinbefore. […] Experimental results lead to the conclusion that C—N bonds in carbazole are selectively cleaved by the Pseudomonas stutzer culture isolated here although the specific metabolites produced have not yet been determined.

[6] = system: Pseudomonas nitroreducens
[7] = system: Pseudomonas ayucida No PTA-806; assay: Petroleum (shale oil) biodenitrogenation test; type: cell-based; details: overnight (16 hour) incubation
Experimental: One liter of culture OD600=1.67 is produced, which is harvested and the cell pellet is resuspended in 100 mls of ModA medium. The culture is divided into two 50 ml portions and 3 ml of shale oil (1.7 weight % nitrogen) is added to each. Then, the cultures are incubated under agitation at room temperature overnight (16 hours), the oil is separated and analyzed. The amount of quinoline present in oil samples is determined by GC, the area under the peak being corresponding to a retention time for quinoline.
Then duplicate washed concentrated cell suspensions were incubated with shale oil samples for 16 hours at 30° C. The control sample consisted of shale oil added to sterile ModA medium which was incubated for 16 hours at 30° C. After incubation the petroleum samples were recovered and analyzed.

[8] = modified medium A, pH 7, 55° C.
[9] = pyridine 3 mM as sole nitrogen source, 55° C., Modified A medium

## N[C@@H](Cc1c[nH]c2ccccc12)C(=O)O [tryptophan]
[1]
  growth on test compound (substrate range): showed growth
[2]
  growth on test compound as nitrogen source: grow

## c1ccc2nccnc2c1 [quinoxaline]
[3]
  utilization / metabolism by derivative culture: improved ability to utilize
[2]
  growth on test compound as nitrogen source: grow

## Oc1cccc2cccnc12 [8-hydroxyquinoline]
[2]
  growth on test compound as nitrogen source: grow

## CCCCN1CCCC1 [1-butylpyrrolidine]
[2]
  growth in the presence of test compound when quinoline simultaneously present as alternate nitrogen source: grew in the presence of all of the test compounds except

## c1ccc2c(c1)[nH]c1ccccc12 [carbazole]
[4]
  utilization as sole nitrogen source: able to utilize
  utilization as source of carbon: dose not utilize
[5]
  utilization as sole nitrogen source: able to utilize
  utilization as source of carbon: dose not utilize

## O=C1CCc2ccccc2N1 [3,4-dihydro-(1H)-quinolinone]
[2]
  growth on test compound as nitrogen source: grow

## NCCCC[C@H](N)C(=O)O [lysine]
[1]
  growth on test compound (substrate range): showed growth
[2]
  growth on test compound as nitrogen source: grow

## c1ccc2cnccc2c1 [isoquinoline]
[3]
  utilization / metabolism by derivative culture: increased substrate range for the metabolism

## O=C(O)c1cccnc1 [nicotinic acid]
[1]
  growth on test compound (substrate range): showed growth
[2]
  growth on test compound as nitrogen source: grow

## c1ccc2ncccc2c1 [quinoline]
[6]
  growth with compound as sole source of nitrogen: growth with quinoline as sole source of nitrogen is indicated
[6]; quinoline 3.4 mM as sole source of nitrogen
  reduction of total nitrogen content of the medium: up to 85%
[7]
  quinoline removed from shale oil: about 68%
[2]
  utilization as carbon source for growth: lack of utilization
  growth on test compound as nitrogen source: grow
[2]; defined salts medium, 30° C., quinoline as sole nitrogen source
  cell doubling time: 4.25 h

## Nc1nc2nc[nH]c2c(=O)[nH]1 [guanine]
[1]
  growth on test compound (substrate range): showed growth
[2]
  growth on test compound as nitrogen source: grow

## c1ccncc1 [pyridine]
[1]
  utilization as carbon source: no utilization
  growth on test compound (substrate range): showed growth
[1]; 55° C.
  utilization as sole nitrogen source: able to utilize
[1]; [8]
  concentration inhibitory to the culture: higher than 10 mM
  minimum nitrogen concentration needed for growth: 0.5 mM
[1]; [9]
  exponential growth rate: 0.13 h
  generation time: 7.55 h

## Cl.N [ammonium chloride]
[1]; [8]
  minimum nitrogen concentration needed for growth: 0.5 mM

## C=C1N(C)c2ccccc2C1(C)C [2-methylene-1,3,3-trimethyl indoline]
[2]
  growth in the presence of test compound when quinoline simultaneously present as alternate nitrogen source: grew in the presence of all of the test compounds except

## Oc1cc(O)c2ccccc2n1 [2,4-quinolinediol]
[2]
  growth on test compound as nitrogen source: grow

## c1ccc2ncncc2c1 [quinazoline]
[3]
  utilization / metabolism by derivative culture: increased substrate range for the metabolism

## O=c1ccc2cccc(O)c2o1 [8-hydroxycoumarin]
[2]
  utilization as carbon source for growth: lack of utilization

## NC(N)=O [urea]
[1]
  growth on test compound (substrate range): showed growth
[2]
  growth on test compound as nitrogen source: grow

From US6541240B1, “Bacterial cleavage of only organic C-N bonds of carbonaceous materials to reduce nitrogen content” (Petroleo Brasileiro S.A.-Petrobras, priority 1999, dated 2003)
